Assay results: publication PMC6321475, “Synthesis and Evaluation of the 4-Substituted 2-Hydroxy-5-Iodochalcones and Their 7-Substituted 6-Iodoflavonol Derivatives for Inhibitory Effect on Cholinesterases and β-Secretase” (International Journal of Molecular Sciences, 2018)
Like-named read-outs stand apart in the source and are kept apart here.

Key:
Type in all cases: biochemical
[1] = target: acetylcholinesterase (AChE) (Homo sapiens, UniProt P22303); assay: biochemical
[2] = target: butyrylcholinesterase (BChE) (Homo sapiens, UniProt P06276); assay: biochemical
BACE-1 = target: T1, BACE-1 (Homo sapiens, UniProt P56817); assay: In vitro BACE-1 inhibitory FRET assay; conditions: 60 min at 25 °C, pH 4.5
T1 construct: purchased Pan Vera; host or cells: baculovirus-expressed

[3] = mean ± SD, three independent experiments

butyrylcholinesterase (BChE), sequence (P06276 29-602): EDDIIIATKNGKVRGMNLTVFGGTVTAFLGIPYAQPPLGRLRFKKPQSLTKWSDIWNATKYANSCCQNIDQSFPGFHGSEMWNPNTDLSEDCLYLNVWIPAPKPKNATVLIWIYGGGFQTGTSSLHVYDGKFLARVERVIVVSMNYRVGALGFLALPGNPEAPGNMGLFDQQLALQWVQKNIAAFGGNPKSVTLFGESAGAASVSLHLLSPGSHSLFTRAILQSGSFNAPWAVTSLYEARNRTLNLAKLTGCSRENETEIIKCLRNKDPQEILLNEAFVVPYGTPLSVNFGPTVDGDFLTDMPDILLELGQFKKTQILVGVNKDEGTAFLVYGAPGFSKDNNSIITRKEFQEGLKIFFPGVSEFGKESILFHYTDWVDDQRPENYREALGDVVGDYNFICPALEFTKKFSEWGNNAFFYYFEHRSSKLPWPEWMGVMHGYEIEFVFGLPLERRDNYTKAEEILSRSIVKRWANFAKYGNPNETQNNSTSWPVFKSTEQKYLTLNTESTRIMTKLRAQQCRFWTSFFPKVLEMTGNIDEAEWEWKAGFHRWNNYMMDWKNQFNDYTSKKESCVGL
acetylcholinesterase (AChE), sequence (P22303 32-614): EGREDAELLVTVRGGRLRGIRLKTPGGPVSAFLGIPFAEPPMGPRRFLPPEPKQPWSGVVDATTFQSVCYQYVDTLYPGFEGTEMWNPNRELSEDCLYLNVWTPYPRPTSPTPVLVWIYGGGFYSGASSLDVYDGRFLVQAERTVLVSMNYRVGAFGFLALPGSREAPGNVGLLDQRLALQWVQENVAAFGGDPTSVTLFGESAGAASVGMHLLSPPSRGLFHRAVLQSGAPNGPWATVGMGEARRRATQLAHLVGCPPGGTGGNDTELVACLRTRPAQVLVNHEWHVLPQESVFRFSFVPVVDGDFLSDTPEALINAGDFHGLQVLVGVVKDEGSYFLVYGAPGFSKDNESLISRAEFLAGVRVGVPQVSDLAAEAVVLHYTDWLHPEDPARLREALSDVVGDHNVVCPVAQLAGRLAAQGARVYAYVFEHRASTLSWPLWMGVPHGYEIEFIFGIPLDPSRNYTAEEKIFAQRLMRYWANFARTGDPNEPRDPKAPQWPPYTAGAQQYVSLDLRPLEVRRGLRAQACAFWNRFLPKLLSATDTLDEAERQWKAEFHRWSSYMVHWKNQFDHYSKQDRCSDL
T1 sequence (P56817 46-501): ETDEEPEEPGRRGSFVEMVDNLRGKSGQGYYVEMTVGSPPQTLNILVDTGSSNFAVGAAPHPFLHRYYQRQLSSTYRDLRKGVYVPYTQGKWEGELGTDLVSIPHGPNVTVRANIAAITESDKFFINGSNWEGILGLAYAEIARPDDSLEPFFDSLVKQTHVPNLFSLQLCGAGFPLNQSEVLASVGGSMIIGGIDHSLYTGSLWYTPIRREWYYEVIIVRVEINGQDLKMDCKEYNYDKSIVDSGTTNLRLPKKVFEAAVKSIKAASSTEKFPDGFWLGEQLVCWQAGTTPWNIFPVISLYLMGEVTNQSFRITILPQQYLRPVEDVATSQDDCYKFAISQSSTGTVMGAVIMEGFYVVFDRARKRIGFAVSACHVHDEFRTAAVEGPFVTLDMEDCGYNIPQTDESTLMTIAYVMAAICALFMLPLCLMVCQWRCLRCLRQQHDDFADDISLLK

| Compound | SI BChE/AChE [1] | IC50 [1, 3] | SI AChE/BChE [2] | IC50 [2, 3] | IC50 [1] | IC50 [2] | IC50 (BACE-1) |
| --- | --- | --- | --- | --- | --- | --- | --- |
| O=C(/C=C/c1ccccc1)c1cc(I)c(F)cc1O [Compound 2a, (E)-1-(4-Fluoro-2-hydroxy-5-iodophenyl)-3-phenylpropenone] | 0.72 | 38.78 ± 0.01 µM | 1.38 | 28.06 ± 0.1 µM |  |  |  |
| O=C(/C=C/c1ccc(F)cc1)c1cc(I)c(F)cc1O [Compound 2b, (E)-1-(4-Fluoro-2-hydroxy-5-iodophenyl)-3-(4-fluorophenyl)propenone] | 1.19 |  | 0.84 |  | 16.6 ± 0.03 µM | 19.73 ± 0.05 µM |  |
| O=C(/C=C/c1ccc(Cl)cc1)c1cc(I)c(F)cc1O [Compound 2c, (E)-3-(4-chlorophenyl)-1-(4-fluoro-2-hydroxy-5-iodophenyl)prop-2-en-1-one] | 1.39 | 10.5 ± 0.08 µM | 0.72 | 14.58 ± 0.14 µM |  |  |  |
| COc1ccc(/C=C/C(=O)c2cc(I)c(F)cc2O)cc1 [Compound 2d, (E)-1-(4-Fluoro-2-hydroxy-5-iodophenyl)-3-(4-methoxyphenyl)propenone] | 0.78 |  | 1.29 |  | 11 ± 0.3 µM | 8.49 ± 0.05 µM |  |
| O=C(/C=C/c1ccccc1)c1cc(I)c(Cl)cc1O [Compound 2e, (E)-1-(4-Chloro-2-hydroxy-5-iodophenyl)-3-phenylpropenone] | 2.37 |  |  |  | 10.64 ± 0.07 µM | 25.2 ± 0.3 µM |  |
| O=C(/C=C/c1ccc(F)cc1)c1cc(I)c(Cl)cc1O [Compound 2f, (E)-1-(4-Chloro-2-hydroxy-5-iodophenyl)-3-(4-fluorophenyl)propenone] | 1.87 | 9.57 ± 0.2 µM | 0.54 | 17.86 ± 0.08 µM |  |  |  |
| O=C(/C=C/c1ccc(Cl)cc1)c1cc(I)c(Cl)cc1O [Compound 2g, (E)-1-(4-Chloro-2-hydroxy-5-iodophenyl)-3-(4-chlorophenyl)propenone] |  |  |  |  | 11 ± 0.06 µM | > 100 µM |  |
| O=C(/C=C/c1ccccc1)c1cc(I)c(Br)cc1O [Compound 2i, (E)-1-(4-Bromo-2-hydroxy-5-iodophenyl)-3-phenylpropenone] | 0.24 |  | 4.12 |  | 58.14 ± 0.21 µM | 14.11 ± 0.11 µM |  |
| O=C(/C=C/c1ccc(Cl)cc1)c1cc(I)c(Br)cc1O [Compound 2k, (E)-1-(4-Bromo-2-hydroxy-5-iodophenyl)-3-(4-chlorophenyl)propenone] | 0.90 |  | 1.11 |  | 11.56 ± 0.05 µM | 10.44 ± 0.09 µM |  |
| COc1ccc(/C=C/C(=O)c2cc(I)c(Br)cc2O)cc1 [Compound 2l, (E)-1-(4-Bromo-2-hydroxy-5-iodophenyl)-3-(4-methoxyphenyl)propenone] | 1.45 |  | 0.69 |  | 10.51 ± 0.03 µM | 15.25 ± 0.01 µM |  |
| COc1cc(O)c(C(=O)/C=C/c2ccccc2)cc1I [Compound 2m, (E)-1-(2-Hydroxy-5-iodo-4-methoxyphenyl)-3-phenylprop-2-en-1-one] | 0.95 | 10.01 ± 0.09 µM | 1.05 | 9.52 ± 0.03 µM |  |  |  |
| COc1cc(O)c(C(=O)/C=C/c2ccc(F)cc2)cc1I [Compound 2n, (E)-3-(4-Fluorophenyl)-1-(2-hydroxy-5-iodo-4-methoxyphenyl)prop-2-en-1-one] | 0.63 | 9.38 ± 0.07 µM | 1.59 | 5.91 ± 0.05 µM |  |  | 25.07 ± 0.1 µM |
| COc1cc(O)c(C(=O)/C=C/c2ccc(Cl)cc2)cc1I [Compound 2o, (E)-3-(4-Chlorophenyl)-1-(2-hydroxy-5-iodo-4-methoxyphenyl)prop-2-en-1-one] | 1.05 | 11.1 ± 0.12 µM | 0.95 | 11.6 ± 0.17 µM |  |  |  |
| COc1ccc(/C=C/C(=O)c2cc(I)c(OC)cc2O)cc1 [Compound 2p, (E)-1-(2-Hydroxy-5-iodo-4-methoxyphenyl)-3-(4-methoxyphenyl)prop-2-en-1-one] | 0.45 | 10.96 ± 0.03 µM | 2.24 | 4.89 ± 0.02 µM |  |  | 70.79 ± 0.2 µM |
| O=c1c(O)c(-c2ccccc2)oc2cc(F)c(I)cc12 [Compound 3a, 7-Flu.oro-3-hydroxy-6-iodo-2-phenyl-4H-chromen-4-one] | 0.91 |  | 1.10 |  | 29.71 ± 0.01 µM | 27.01 ± 0.06 µM |  |
| COc1ccc(-c2oc3cc(F)c(I)cc3c(=O)c2O)cc1 [Compound 3d, 7-Flu.oro-3-hydroxy-6-iodo-2-(4-methoxyphenyl)-4H-chromen-4-one] | 0.50 |  | 1.98 |  | 58.18 ± 0.03 µM | 29.41 ± 0.04 µM |  |
| O=c1c(O)c(-c2ccccc2)oc2cc(Cl)c(I)cc12 [Compound 3e, 7-Chl.oro-3-hydroxy-6-iodo-2-phenyl-4H-chromen-4-one] | 0.14 |  | 7.21 |  | 47.85 ± 0.04 µM | 6.64 ± 0.03 µM |  |
| O=c1c(O)c(-c2ccc(F)cc2)oc2cc(Cl)c(I)cc12 [Compound 3f, 7-Chl.oro-2-(4-fluorophenyl)-3-hydroxy-6-iodo-4H-chromen-4-one] | 0.47 |  | 2.11 |  | 38.39 ± 0.02 µM | 18.17 ± 0.1 µM |  |
| O=c1c(O)c(-c2ccc(Cl)cc2)oc2cc(Cl)c(I)cc12 [Compound 3g, 7-Chl.oro-2-(4-chlorophenyl)-3-hydroxy-6-iodo-4H-chromen-4-one] | 0.13 |  | 7.69 |  | 59.1 ± 0.05 µM | 7.69 ± 0.01 µM |  |
| COc1ccc(-c2oc3cc(Cl)c(I)cc3c(=O)c2O)cc1 [Compound 3h, 7-Chl.oro-3-hydroxy-6-iodo-2-(4-methoxyphenyl)-4H-chromen-4-one] | 0.40 | 14.33 ± 0.03 µM | 2.51 | 5.72 ± 0.01 µM |  |  |  |
| O=c1c(O)c(-c2ccccc2)oc2cc(Br)c(I)cc12 [Compound 3i, 7-Bro.mo-3-hydroxy-6-iodo-2-phenyl-4H-chromen-4-one] | 0.57 |  | 1.73 |  | 9.96 ± 0.01 µM | 5.76 ± 0.04 µM |  |
| O=c1c(O)c(-c2ccc(F)cc2)oc2cc(Br)c(I)cc12 [Compound 3j, 7-Bro.mo-2-(4-fluorophenyl)-3-hydroxy-6-iodo-4H-chromen-4-one] | 2.42 |  | 0.41 |  | 11.16 ± 0.01 µM | 27.01 ± 0.07 µM |  |
| O=c1c(O)c(-c2ccc(Cl)cc2)oc2cc(Br)c(I)cc12 [Compound 3k, 7-Bro.mo-2-(4-chlorophenyl)-3-hydroxy-6-iodo-4H-chromen-4-one] | 0.18 |  | 5.57 |  | 29.24 ± 0.03 µM | 5.25 ± 0.01 µM |  |
| COc1cc2oc(-c3ccccc3)c(O)c(=O)c2cc1I [Compound 3m, 3-Hyd.roxy-6-iodo-7-methoxy-2-phenyl-4H-chromen-4-one] | 1.14 |  | 0.88 |  | 9.25 ± 0.09 µM | 10.5 ± 0.02 µM |  |
| COc1cc2oc(-c3ccc(F)cc3)c(O)c(=O)c2cc1I [Compound 3n, 2-(4-F.luorophenyl)-3-hydroxy-6-iodo-7-methoxy-4H-chromen-4-one] | 1.29 |  | 0.76 |  | 6.15 ± 0.01 µM | 7.93 ± 0.06 µM |  |
| COc1cc2oc(-c3ccc(Cl)cc3)c(O)c(=O)c2cc1I [Compound 3o, 2-(4-C.hlorophenyl)-3-hydroxy-6-iodo-7-methoxy-4H-chromen-4-one] | 0.24 |  | 4.03 |  | 55.27 ± 0.04 µM | 13.7 ± 0.14 µM |  |
